pIC50: −log10 of the molar value. Read-outs that look alike come from different tables or passages of the source.
How the values were obtained:
BRAF V600E = BRAF V600E (Homo sapiens (Human), UniProt P15056, V600E); experiment: Inhibitory activity against kinase BRAF V600E, Z'-LYTE method (Invitrogen); format: biochemical; conditions: for inhibition at 1 µM: read-out: Inhibition (% inhibition at 1 μM) against BRAF V600E
Method in brief: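 FRET-based Z′-LYTE peptide-phosphorylation assay in 50 mM HEPES pH 7.5, 0.01% BRIJ-35, 10 mM MgCl2, 1 mM EGTA; kinase reaction 60 min at room temperature, then 60 min development before fluorescence read. IC50 from concentration vs % inhibition; single-point % inhibition tested at 1 μM.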

A375 cells = experiment: Inhibition of cancer cell growth, MTT or MTS assay, A375; format: cell-based; conditions: Homo sapiens, A-375; 72 h incubation
Method in brief: (§1)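 Cells in RPMI 1640 with 10% FBS were seeded at ~2000 (A375) or 4000 (A549, Colo205) per well, grown 24 h, then exposed to compound 72 h at 1% final DMSO. Read-out by MTT (570 nm) or MTS (490 nm). IC50 from concentration vs percent inhibition, triplicates.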

A549 cells = experiment: Inhibition of cancer cell growth, MTT or MTS assay, A549; format: cell-based; conditions: Homo sapiens, 72 h incubation
Method in brief: as §1

KDR (VEGFR2) = KDR (VEGFR2) (Homo sapiens (Human), UniProt P35968); experiment: Inhibitory activity against kinase KDR, Z'-LYTE method (Invitrogen); format: biochemical; conditions: for inhibition at 1 µM: read-out: Inhibition (% inhibition at 1 μM) against KDR
Method in brief: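 Human KDR (VEGFR2) kinase inhibition was measured with Invitrogen's Z′-LYTE® method. A 2× mixture of KDR and Tyr 01 peptide is made in 50 mM HEPES pH 7.5, 0.01% BRIJ-35, 10 mM MgCl2, 1 mM EGTA. Each 10 μL reaction holds 0.5-11.7 ng enzyme and 2 μM Tyr 01. It incubates for 1 hour, then 5 μL of Development Reagent B diluted 1:256 is added.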

Colo205 cells = experiment: Inhibition of cancer cell growth, MTT or MTS assay, Colo205; format: cell-based; conditions: Homo sapiens, COLO 205; 72 h incubation
Method: Inhibition of cell growth by compounds was measured using MTT or MTS assay. Tumor cell lines were purchased from ATCC (American Type Culture Collection, Manassas, Va.). All cell lines were maintained in RPMI 1640 (Hyclone) supplemented with 10% fetal bovine serum (FBS, Hyclone), glutamine (2 mM, Hyclone), and antibiotics (penicillin 100 U/mL and streptomycin 50 μg/mL) at 37° C. in a humidified atmosphere of 5% CO2 in air. Taxol (as a positive control, Sigma) and compounds were dissolved in DMSO (Sigma), and the final concentration of DMSO in the medium was 1%. Tumor cells were plated in 96-well plates at densities of about 2000 (A375) or 4000 (A549 and Colo205) cells/well of a 96-well plate and allowed to adhere/grow for 24 h. They were then treated with various concentrations of drug and incubated for 72 h. For MTT method, medium was then removed by inverting and tapping the plates. 100 μL of MTT (0.5 mg/ml) was added to each well followed by an incubated at 37° C. for 4 h. MTT was then removed and 200 μL of DMSO was added to each well, and the ODs at 570 nm were measured after a 5 second shaking cycle in a 96-well spectrophotometer. For MTS method, 20 μL MTS (CellTiter 96 Aqueous One Solution, Promega) was added to each well followed by an incubated at 37° C. for 2-4 h, solutions were then directly put in a 96-well spectrophotometer, and the ODs at 490 nm were measured.
All concentrations of compounds were tested in triplicate and controls were averaged over 4 wells. IC50 was calculated by plotting the concentration of compound vs the percentage of inhibition in treated wells using GraphPad Prism 5. […] The scale utilized in Tables […] is as follows: +++ less than 1000 nM; ++ between 1000 nM and 5000 nM; and + greater than 5000 nM. The scale utilized in Table 8 is as follows: +++ less than 2000 nM; ++ between 2000 nM and 5000 nM; and + greater than 5000 nM.

BRAF = BRAF (Homo sapiens (Human), UniProt P15056); experiment: Inhibitory activity against kinase BRAF, Z'-LYTE method (Invitrogen); format: biochemical; conditions: 1 μM compound
Method: Inhibitory activities Inhibitory activities of compounds against BRAF, and BRAF V600E were measured by Invitrogen using Z′-LYTE® Method as briefly described in the following. 4× Test compounds are dissolved in 1% DMSO. […] ATP solutions are diluted to a 4×ATP working concentration in Kinase Buffer (50 mM HEPES pH 7.5, 0.01% BRIJ-35, 10 mM MgCl2, 1 mM EGTA). Reaction started by 30-second shaking of mixture consisting of 2.5 μL 4× test compound, […] and 2.5 μL 4×ATP Solution on Bar-coded Corning, low volume NBS, black 384-well plate (Corning Cat. #3676). Then the mixture was incubated for 60-minute at room temperature for the kinase reaction, followed by addition of 5 μL of a 1:1024 dilution of development reagent A and 30-second plate shake. The mixture was then incubated for another 60-minute at room temperature for development reaction. Fluorescence was read by plate reader. IC50 was calculated by plotting the concentration of compound vs the percentage of inhibition in treated wells using GraphPad Prism 5.
Table 2 and 3 show % inhibition at 1 μM of several compounds of the invention against BRAF and BRAF V600E, respectively, using Z′-LYTE® method.

Colo205 tumor xenograft = experiment: Inhibition of tumor growth in Colo205 tumor xenograft model; format: in vivo, BALB/c female nude mice; conditions: 30 mg/kg, qd × 14, i.p.; for Tumor Volume Post-treatment: after treatment; for Tumor Volume Pre-treatment: before treatment
Method: Cells were implanted in BALB/c female nude mice and grown as tumor xenografts. When tumors achieved 120-200 mm^3, mice were assigned into treatment and control groups using randomized block design based upon their tumor volumes. Each group contained 6 tumor-bearing mice. Tumors were measured twice weekly in two dimensions using a caliper, and the tumor volume was calculated from two-dimensional measurements using the equation V=0.5×a×b^2 where a and b are the long and short diameters of the tumor, respectively. Relative tumor volume (RTV) was defined as TVt/TVi, the ratio of the volume on a given day (TVt) and the volume at the start of treatment (TVi). Relative tumor growth rate (T/C) was defined as RTVT/RTVC, the ratio of relative tumor volume of treatment group (RTVT) and relative tumor volume of control group (RTVC) on a given day. Inhibition of tumor growth in a Colo205 tumor xenograft model is shown below in Table 10 for a compound of Table 1.

Sequence of KDR (VEGFR2) (P35968 20-1356): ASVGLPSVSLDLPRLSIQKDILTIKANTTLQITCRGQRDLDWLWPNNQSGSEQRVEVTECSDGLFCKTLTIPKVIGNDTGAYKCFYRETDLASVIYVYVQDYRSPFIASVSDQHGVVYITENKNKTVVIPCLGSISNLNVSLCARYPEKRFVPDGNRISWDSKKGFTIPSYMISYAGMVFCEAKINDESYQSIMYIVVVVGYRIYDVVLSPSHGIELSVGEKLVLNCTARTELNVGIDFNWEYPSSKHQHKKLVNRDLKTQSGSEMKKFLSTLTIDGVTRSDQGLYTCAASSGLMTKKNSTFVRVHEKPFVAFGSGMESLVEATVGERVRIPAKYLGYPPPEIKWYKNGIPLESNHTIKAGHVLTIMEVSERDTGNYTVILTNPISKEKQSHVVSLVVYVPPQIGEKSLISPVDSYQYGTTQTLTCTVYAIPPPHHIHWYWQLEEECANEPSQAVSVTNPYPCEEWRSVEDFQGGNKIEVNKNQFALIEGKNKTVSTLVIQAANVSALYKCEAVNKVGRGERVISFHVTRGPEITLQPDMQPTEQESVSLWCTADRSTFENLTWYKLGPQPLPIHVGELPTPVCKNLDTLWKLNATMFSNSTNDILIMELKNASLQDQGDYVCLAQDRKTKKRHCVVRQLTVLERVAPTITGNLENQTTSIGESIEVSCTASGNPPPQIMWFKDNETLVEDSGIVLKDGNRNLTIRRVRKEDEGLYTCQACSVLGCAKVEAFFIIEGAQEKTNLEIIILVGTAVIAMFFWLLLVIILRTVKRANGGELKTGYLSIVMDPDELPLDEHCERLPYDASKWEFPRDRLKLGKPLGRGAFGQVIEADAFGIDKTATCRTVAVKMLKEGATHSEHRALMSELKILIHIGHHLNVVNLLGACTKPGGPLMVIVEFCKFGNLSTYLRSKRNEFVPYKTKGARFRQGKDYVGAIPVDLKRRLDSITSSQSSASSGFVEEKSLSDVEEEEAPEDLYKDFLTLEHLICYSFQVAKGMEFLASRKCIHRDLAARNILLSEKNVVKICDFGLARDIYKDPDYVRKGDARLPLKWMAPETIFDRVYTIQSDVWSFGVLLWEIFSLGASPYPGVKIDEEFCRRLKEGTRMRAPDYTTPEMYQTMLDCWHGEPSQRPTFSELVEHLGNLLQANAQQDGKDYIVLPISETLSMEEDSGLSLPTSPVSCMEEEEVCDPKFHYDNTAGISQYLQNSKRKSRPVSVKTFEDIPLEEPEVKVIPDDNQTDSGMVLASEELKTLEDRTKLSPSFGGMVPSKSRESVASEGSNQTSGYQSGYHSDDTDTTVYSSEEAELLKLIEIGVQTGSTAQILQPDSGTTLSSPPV
Sequence of BRAF V600E (P15056 whole entry V600E): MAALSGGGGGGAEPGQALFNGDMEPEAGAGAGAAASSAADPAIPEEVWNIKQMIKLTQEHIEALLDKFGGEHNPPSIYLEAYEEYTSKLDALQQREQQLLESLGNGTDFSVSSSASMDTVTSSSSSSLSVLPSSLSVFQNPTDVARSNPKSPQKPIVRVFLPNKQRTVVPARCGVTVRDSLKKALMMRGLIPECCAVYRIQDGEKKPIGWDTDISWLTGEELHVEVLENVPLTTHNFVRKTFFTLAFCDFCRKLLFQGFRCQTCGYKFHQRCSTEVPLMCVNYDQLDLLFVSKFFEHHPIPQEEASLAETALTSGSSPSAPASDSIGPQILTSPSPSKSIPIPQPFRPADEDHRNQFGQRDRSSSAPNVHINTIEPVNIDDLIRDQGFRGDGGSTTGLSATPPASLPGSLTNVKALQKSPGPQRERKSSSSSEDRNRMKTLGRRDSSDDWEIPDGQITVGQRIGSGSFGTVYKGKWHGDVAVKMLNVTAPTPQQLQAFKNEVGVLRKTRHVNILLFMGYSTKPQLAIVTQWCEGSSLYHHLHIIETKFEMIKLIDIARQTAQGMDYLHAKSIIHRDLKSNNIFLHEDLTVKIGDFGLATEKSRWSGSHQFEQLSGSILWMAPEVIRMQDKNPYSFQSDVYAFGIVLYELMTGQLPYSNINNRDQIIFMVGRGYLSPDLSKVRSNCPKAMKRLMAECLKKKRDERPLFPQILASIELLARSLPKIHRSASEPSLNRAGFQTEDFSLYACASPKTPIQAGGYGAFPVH
Sequence of BRAF (P15056 whole entry): as the sequence (P15056 whole entry V600E) above, with E600V counted along it

| SMILES | pIC50 (BRAF V600E) | inhibition at 1 µM (BRAF V600E; 1 μM compound) | pIC50 (A375 cells) | pIC50 (A549 cells) | pIC50 (KDR (VEGFR2)) | inhibition at 1 µM (KDR (VEGFR2); 1 μM compound) | pIC50 (Colo205 cells) | inhibition at 1 µM (BRAF) | inhibition at 1 µM (BRAF V600E) | inhibition at 1 µM (KDR (VEGFR2)) | T/C (relative tumor growth rate) (Colo205 tumor xenograft) | Tumor Volume Post-treatment (Colo205 tumor xenograft) | Tumor Volume Pre-treatment (Colo205 tumor xenograft) |
| --- | --- | --- | --- | --- | --- | --- | --- | --- | --- | --- | --- | --- | --- |
| O=C(Nc1cccc(Oc2ccc3nccnc3c2)c1)Nc1ccc(Cl)c(C(F)(F)F)c1 [Compound C001, 1-(4-chloro-3-(trifluoromethyl)phenyl)-3-(3-(quinoxalin-6-yloxy)phenyl)urea] | < 7.00 | > 89% | 5.30 to 6.00 | > 5.70 | > 7.00 | > 89% | 5.30 to 6.00 |  |  |  |  |  |  |
| O=C(Nc1ccc(F)c(Oc2ccc3ncc(N4CCNCC4)nc3c2)c1)Nc1ccc(Cl)c(C(F)(F)F)c1 [Compound C066, 1-(4-chloro-3-(trifluoromethyl)phenyl)-3-(4-fluoro-3-((3-(piperazin-1-yl)quinoxalin-6-yl)oxy)phenyl)urea] |  | > 89% | 5.30 to 6.00 | > 5.70 |  | > 89% |  | < 70% |  |  |  |  |  |
| N#Cc1ccc(NC(=O)Nc2cccc(Oc3ccc4nccnc4c3)c2)cc1 [Compound C070, 1-(4-cyanophenyl)-3-(3-(quinoxalin-6-yloxy)phenyl)urea] |  | > 89% | < 5.30 | < 5.30 |  | > 89% |  | > 89% |  |  |  |  |  |
| N#Cc1ccc(NC(=O)Nc2cccc(Oc3ccc4nccnc4c3)c2)cc1C(F)(F)F [Compound C073, 1-(4-cyano-3-(trifluoromethyl)phenyl)-3-(3-(quinoxalin-6-yloxy)phenyl)urea] |  |  | < 5.30 | 5.30 to 5.70 |  |  |  | < 70% | > 89% | 70 to 89% |  |  |  |
| O=C(Nc1ccc(Oc2ccc3nccnc3c2)cc1)Nc1cccc(C(F)(F)F)c1 [Compound C075, 1-(4-(quinoxalin-6-yloxy)phenyl)-3-(3-(trifluoromethyl)phenyl)urea] | < 7.00 | > 89% | 5.30 to 6.00 | 5.30 to 5.70 | < 7.00 | 70 to 89% |  | < 70% |  |  |  |  |  |
| O=C(Nc1ccc(F)cc1)Nc1ccc(Oc2ccc3ncc(N4CCOCC4)nc3c2)cc1 [Compound C082, 1-(4-fluorophenyl)-3-(4-((3-morpholinoquinoxalin-6-yl)oxy)phenyl)urea] |  | > 89% |  |  |  | 70 to 89% | < 5.30 | < 70% |  |  |  |  |  |
| O=C(Nc1ccc(Oc2ccc3ncc(N4CCNCC4)nc3c2)cc1)Nc1ccc(F)c(C(F)(F)F)c1 [Compound C087, 1-(4-fluoro-3-(trifluoromethyl)phenyl)-3-(4-((3-(piperazin-1-yl)quinoxalin-6-yl)oxy)phenyl)urea] |  | > 89% | 5.30 to 6.00 | > 5.70 |  | > 89% | 5.30 to 6.00 | 70 to 89% |  |  | 81% | 796.35 mm^3 | 237.13 mm^3 |
| O=C(Nc1ccc(Oc2ccc3ncc(N4CCNCC4)nc3c2)cc1)Nc1ccc(C(F)(F)F)cc1 [Compound C088, 1-(4-((3-(piperazin-1-yl)quinoxalin-6-yl)oxy)phenyl)-3-(4-(trifluoromethyl)phenyl)urea] |  | > 89% | 5.30 to 6.00 | 5.30 to 5.70 |  | > 89% |  | < 70% |  |  |  |  |  |
| O=C(Nc1ccc(Oc2ccc3ncc(N4CCNCC4)nc3c2)cc1)Nc1ccc(Cl)c(C(F)(F)F)c1 [Compound C089, 1-(4-chloro-3-(trifluoromethyl)phenyl)-3-(4-((3-(piperazin-1-yl)quinoxalin-6-yl)oxy)phenyl)urea] |  | > 89% | > 6.00 | > 5.70 |  | > 89% | > 6.00 | < 70% |  |  | 79% | 768.94 mm^3 | 233.30 mm^3 |
| O=C(Nc1ccc(F)cc1)Nc1ccc(Oc2ccc3ncc(N4CCNCC4)nc3c2)cc1 [Compound C090, 1-(4-fluorophenyl)-3-(4-((3-(piperazin-1-yl)quinoxalin-6-yl)oxy)phenyl)urea] |  | > 89% | 5.30 to 6.00 | > 5.70 |  | > 89% |  | 70 to 89% |  |  |  |  |  |
| O=C(Nc1ccc(Oc2ccc3ncc(N4CCNCC4)nc3c2)cc1)Nc1cccc(Cl)c1 [Compound C091, 1-(3-chlorophenyl)-3-(4-((3-(piperazin-1-yl)quinoxalin-6-yl)oxy)phenyl)urea] |  | > 89% | 5.30 to 6.00 | 5.30 to 5.70 |  | > 89% |  | > 89% |  |  |  |  |  |
| O=C(Nc1ccc(Cl)cc1)Nc1ccc(Oc2ccc3ncc(N4CCNCC4)nc3c2)cc1 [Compound C092, 1-(4-chlorophenyl)-3-(4-((3-(piperazin-1-yl)quinoxalin-6-yl)oxy)phenyl)urea] |  | > 89% | < 5.30 | 5.30 to 5.70 |  | 70 to 89% |  | > 89% |  |  |  |  |  |
| O=C(Nc1cccc(Cl)c1)Nc1ccc(Oc2ccc3nccnc3c2)cc1F [Compound C093, 1-(3-chlorophenyl)-3-(2-fluoro-4-(quinoxalin-6-yloxy)phenyl)urea] |  | > 89% | < 5.30 | < 5.30 |  | 70 to 89% |  | 70 to 89% |  |  |  |  |  |

From patent US10590106B2, “Certain chemical entities, compositions, and methods” (NeuPharma, Inc., priority 2012, dated 2020)
